Reference: patent US8790719B2, “Phytocannabinoids in the treatment of cancer” (GW Pharma Limited, priority 2010, dated 2014)
Where two headings read alike, the source gives them in different places.

How the values were obtained:
[1] = test system: subcutaneously implanted U87 human glioma cells; details: s.c., 0.5 mg/mouse; cited from earlier work
[2] = test system: human glioma xenograft tumours; test: Human glioma xenograft tumour volume; format: in vivo; design: unit not given here
Experimental: The phytocannabinoids were also tested with the TMZ as is detailed in Table 13.2 below.

LNCaP = test: Cell vitality (MTT assay), LNCaP; format: cell-based; details: Homo sapiens, read-out: IC50 on cell vitality
Experimental: (§1) Cells were seeded in presence of FBS in 6 wells multiwell with a density of 8×10^4 cells/well (DU-145) or 1×10^5 cells/well (LNCaP). After 7 hours, cells were starved of dihydrotestosterone (DHT) for 15 hours and treated with increased concentrations of compounds for 24 or 48 hours (absence of serum was maintained during the treatments). Cell viability was assessed by MTT staining.
(§2) Phytocannabinoid BDS and their respective isolated phytocannabinoids were tested in both the hormone-insensitive (DU-145) prostate cancer cells and hormone-sensitive (LNCaP) prostate cancer cells. Three different phytocannabinoids were chosen for this experiment: CBG BDS and isolated compound, CBC BDS and isolated compound and CBD BDS and isolated compound.
(§3) The experiment was repeated in the hormone-insensitive (DU-145) prostate cancer cells and hormone-sensitive (LNCaP) prostate cancer cells that had not been starved of DHT. Here just the CBG BDS and isolated CBG are illustrated in Table 7.2 below.

DU-145 = test: Cell vitality (MTT assay), DU-145; format: cell-based; details: Homo sapiens, read-out: IC50 on cell vitality
Experimental: as §1, §2, §3

Glioma cells = test: Human glioma cell vitality (MTT assay); format: cell-based; details: read-out: IC50 on glioma cell vitality
Experimental: Cells were seeded in presence of FBS in 6 wells multiwell with a density of 8×10^4 cells/well. Glioma cells were treated with increased concentrations of compounds and cell viability was assessed by MTT staining.
CBD BDS and isolated CBD, CBG and CBDV were tested.

[3] = test system: MDA-MB-231 breast cancer cell line; test: Cell viability of breast cancer cells (Alamar blue assay); format: cell-based; details: Homo sapiens, 72 hours
Experimental: Cells were seeded in presence of FBS in 6 wells multiwell and treated with increased concentrations of compounds for 72 hours. Cell viability was assessed by Alamar blue staining.
Isolated phytocannabinoids were tested on the MDA-MB-231 breast cancer cell line in order to determine whether phytocannabinoids were effective in other types of cancer other than prostate cancer. The different isolated phytocannabinoids chosen for this experiment were: CBGA, CBDA, CBDV, CBD, THCV and THC.

[4] = test system: Aberrant crypt focus (ACF), polyps and tumours; test: Colon carcinogenesis in the mouse induced by azoxymethane; format: in vivo; details: i.p. three times per week for three months; FIG. 5 c), FIG. 6 c)
From the text: Aberrant crypt focus (ACF), polyps and tumours were induced in the mouse by the carcinogenic substance azoxymethane. The phytocannabinoids were given (i.p.) to the mice three times per week for a period of three months. The COX-2 inhibitor celecoxib was used as a positive control.

GPR55 = target: T1, GPR55 (Homo sapiens, UniProt Q9Y2T6); test: ERK Alphascreen assay using GPR55-HEK cells; format: cell-based
T1 construct: expressed in transfected cells; host or cells: HEK cells (GPR55-HEK)
From the text: An ERK Alphascreen assay was undertaken using GPR55-HEK cells.

U87 glioma cells = test: Viability of U87 glioma cells (MTT assay), THC, CBD, TMZ alone and combined; format: cell-based, human
[5] = test system: recurrent glioblastoma multiforme; details: nine patients, THC intra-tumourally; 95% confidence interval: 15-33; cited from earlier work
[6] = test system: hormone-sensitive prostate cancer cell line (LNCaP); test: Subcutaneous xenograft model, hormone-sensitive prostate cancer (LNCaP); format: in vivo, mice; details: taxotere 5 mg/kg i.v. weekly, alone
Experimental: Cancer cells were maintained in vitro in an appropriate culture medium and were harvested, washed in culture medium and re-suspended in matrigel for ready for in vivo administration. 1-2×10^7 cells in 200 μl were injected subcutaneously into the left flank of mice. The mice were anaesthetised and a 0.5 mg 5-alpha-dihydrotestosterone pellet (21-day release) implanted subcutaneously into the scruff of each mouse to encourage tumour growth, and the wound was closed.
Once the implanted tumour volume reached between 100-200 mm (2-3 weeks) mice were allocated to their treatment groups. Treatment commenced on Day 17. The phytocannabinoid BDS was administered i.p. once daily at doses of 1, 10 & 100 mg/kg cannabinoid BDS for a further 25 days.
In a further experiment the chemotherapeutic agent taxotere (5 mg/kg) i.v. was administered weekly, alone or in combination with 100 mg/kg phytocannabinoid BDS.
Mice were evaluated daily by an experienced technician for 4-5 weeks. Tumour dimensions were recorded at day 7 (calliper measurement of length and width and tumour cross-sectional area and volume calculated) and recorded three times weekly and body weight measured weekly.

T1 sequence (Q9Y2T6 whole entry, species assumed): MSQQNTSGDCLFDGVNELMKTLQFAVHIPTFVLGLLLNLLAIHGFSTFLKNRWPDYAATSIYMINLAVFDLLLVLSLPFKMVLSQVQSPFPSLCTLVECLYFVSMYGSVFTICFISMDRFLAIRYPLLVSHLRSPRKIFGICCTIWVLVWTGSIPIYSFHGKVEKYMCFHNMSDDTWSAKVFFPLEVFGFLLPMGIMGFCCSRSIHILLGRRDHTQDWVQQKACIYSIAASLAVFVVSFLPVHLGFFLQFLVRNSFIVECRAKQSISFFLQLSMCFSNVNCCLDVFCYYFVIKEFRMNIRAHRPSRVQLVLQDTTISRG

Row | Structure (SMILES) | growth of subcutaneously implanted U87 human glioma cells [1] | Tumour volume (increase from day 1) ([2]; dose level 3.7 mg/kg (each)) | Tumour volume (increase from day 1) ([2]; dose level 7.5 mg/kg (each)) | Tumour volume (increase from day 1) ([2]; dose level 15.0 mg/kg) | IC50 (LNCaP; 24 h) | IC50 (LNCaP; 48 h) | IC50 (DU-145; DU-145, 24 h) | IC50 (DU-145; DU-145, 48 h) | IC50 (Glioma cells) | IC50 [3] | numbers of tumours per animal [4] | Effect at GPR55 (GPR55) | Cell Viability (%) (U87 glioma cells; cannabinoid 1 μM (each), Table 12.2) | Cell Viability (%) (U87 glioma cells; dose level 0.7 μM (each)) | Cell Viability (%) (U87 glioma cells; dose level 0.9 μM (each)) | Cell Viability (%) (U87 glioma cells; dose level 1.2 μM (each)) | Median survival from the beginning of cannabinoid administration [5] | growth rate and terminal tumour volume [6]
1 | C=C(C)[C@@H]1CCC(C)=C[C@H]1c1c(O)cc(CCCCC)cc1O [CBD, Cannabidiol] | significantly inhibited the growth | 9.1 | 8.9 | 7.6 | 5.3 µM | 5.6 µM | 5.5 µM | 4.9 µM | 8.92 µM | 5 µM | significantly reduced the numbers of tumours per animal | Antagonist |  |  |  |  |  | 
2 | CCCCCc1cc(O)c2c(c1)OC(C)(C)[C@@H]1CCC(C)=C[C@@H]21 [THC, Tetrahydrocannabinol] |  | 8.7 | 8.5 | 5.8 |  |  |  |  |  | > 10 µM |  |  | 115% | 100% | 92% | 80% | 24 weeks | 
3 | CC(=O)O[C@@]12CO[C@@H]1C[C@H](O)[C@@]1(C)C(=O)[C@H](O)C3=C(C)[C@@H](OC(=O)[C@H](O)[C@@H](NC(=O)OC(C)(C)C)c4ccccc4)C[C@@](O)([C@@H](OC(=O)c4ccccc4)[C@H]21)C3(C)C [taxotere] |  |  |  |  |  |  |  |  |  |  |  |  |  |  |  |  |  | significantly inhibited both growth rate and terminal tumour volume
